Assays:
Assay type in all cases: biochemical
Parameters in all cases: from tissue
ABHD6 = target: T1, ABHD6 (Mus musculus, UniProt Q8R2Y0); assay: In vitro competitive ABPP, % inhibition at fixed concentration, ABHD6
T1 sequence (Q8R2Y0 1-336): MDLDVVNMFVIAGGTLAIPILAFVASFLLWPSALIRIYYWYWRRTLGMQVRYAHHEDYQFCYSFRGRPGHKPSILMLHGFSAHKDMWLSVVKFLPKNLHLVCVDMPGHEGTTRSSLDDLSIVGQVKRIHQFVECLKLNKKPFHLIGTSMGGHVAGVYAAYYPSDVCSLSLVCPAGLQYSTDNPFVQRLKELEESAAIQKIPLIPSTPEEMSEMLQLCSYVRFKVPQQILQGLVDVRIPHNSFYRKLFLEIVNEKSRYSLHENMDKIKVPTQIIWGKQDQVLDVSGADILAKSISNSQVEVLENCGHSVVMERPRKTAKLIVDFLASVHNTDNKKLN
Method: (§1) In Vitro Competitive Activity-Based Protein Profiling.
(§2) Proteomes (mouse brain membrane fraction or cell lysates) (50 μL, 1.0 mg/ml total protein concentration) were preincubated with varying concentrations of inhibitors at 37° C. After 30 min, FP-Rh (1.0 μL, 50 μM in DMSO) was added and the mixture was incubated for another 30 min at 37° C. Reactions were quenched with SDS loading buffer (50 μL—4×) and run on SDS-PAGE. Following gel imaging, serine hydrolase activity was determined by measuring fluorescent intensity of gel bands corresponding to MAGL, ABHD6 and FAAH using ImageJ 1.43u software.

MAGL = target: T2, MAGL (Mus musculus, UniProt O35678); assay: In vitro competitive ABPP, % inhibition at fixed concentration, MAGL
T2 sequence (O35678 1-303): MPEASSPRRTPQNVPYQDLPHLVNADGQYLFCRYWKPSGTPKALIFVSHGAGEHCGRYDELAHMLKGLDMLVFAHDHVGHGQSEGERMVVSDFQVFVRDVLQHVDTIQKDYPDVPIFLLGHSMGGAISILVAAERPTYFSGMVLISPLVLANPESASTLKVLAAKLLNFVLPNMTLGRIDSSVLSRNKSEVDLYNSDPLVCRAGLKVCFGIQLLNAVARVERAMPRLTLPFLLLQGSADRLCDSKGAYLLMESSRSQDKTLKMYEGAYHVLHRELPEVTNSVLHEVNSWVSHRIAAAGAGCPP
Method: as §1, §2

FAAH = target: T3, FAAH (Mus musculus, UniProt O08914); assay: In vitro competitive ABPP, % inhibition at fixed concentration, FAAH
T3 sequence (O08914 1-579): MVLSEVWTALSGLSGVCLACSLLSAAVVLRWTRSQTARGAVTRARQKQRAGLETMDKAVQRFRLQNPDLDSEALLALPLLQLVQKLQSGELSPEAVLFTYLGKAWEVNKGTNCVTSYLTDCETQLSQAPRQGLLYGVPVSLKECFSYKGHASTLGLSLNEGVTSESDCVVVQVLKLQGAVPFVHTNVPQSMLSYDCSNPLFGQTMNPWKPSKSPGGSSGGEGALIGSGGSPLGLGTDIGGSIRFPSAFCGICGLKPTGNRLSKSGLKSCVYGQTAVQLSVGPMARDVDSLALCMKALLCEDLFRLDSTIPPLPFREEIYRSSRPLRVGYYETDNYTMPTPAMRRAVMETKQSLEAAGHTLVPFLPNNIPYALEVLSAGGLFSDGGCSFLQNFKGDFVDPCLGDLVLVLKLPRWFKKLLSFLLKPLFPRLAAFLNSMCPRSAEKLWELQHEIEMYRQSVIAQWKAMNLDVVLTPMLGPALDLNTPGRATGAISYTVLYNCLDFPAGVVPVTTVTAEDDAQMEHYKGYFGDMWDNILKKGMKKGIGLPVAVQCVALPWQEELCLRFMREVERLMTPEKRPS
Method: as §1, §2

inhibition at 1 µM (ABHD6) [%]	inhibition at 1 µM (MAGL) [%]	inhibition at 1 µM (FAAH) [%]	inhibition at 10 µM (ABHD6) [%]	inhibition at 10 µM (MAGL) [%]	inhibition at 10 µM (FAAH) [%]	Structure (SMILES)
25 to 75	> 75	< 25	–	–	–	O=C(ON1C(=O)CCC1=O)N1CCN(Cc2ccc(Cl)cc2N2CCC2)CC1 [Example 112, 2,5-Dioxopyrrolidin-1-yl 4-{[2-(azetidin-1-yl)-4-chlorophenyl]methyl}piperazine-1-carboxylate]
25 to 75	25 to 75	< 25	–	–	–	Cc1cc(-c2ccc(CN3CCN(C(=O)ON4C(=O)CCC4=O)CC3)c(C)c2)cc(C)n1 [Example 113, 2,5-Dioxopyrrolidin-1-yl 4-{[4-(2,6-dimethylpyridin-4-yl)-2-methylphenyl]methyl}piperazine-1-carboxylate]
< 25	25 to 75	< 25	–	–	–	O=C(ON1C(=O)CCC1=O)N1CCN(Cc2ccc(Cl)cc2N2CCn3ncnc3C2)CC1 [Example 117, 2,5-Dioxopyrrolidin-1-yl 4-[(4-chloro-2-{5H,6H,7H,8H-[1,2,4]triazolo[1,5-a]pyrazin-7-yl}phenyl)methyl]piperazine-1-carboxylate]
25 to 75	25 to 75	< 25	–	–	–	Cc1ccc(N2CCOCC2)c(CN2CCN(C(=O)ON3C(=O)CCC3=O)CC2)c1 [Example 127, 2,5-Dioxopyrrolidin-1-yl 4-{[5-methyl-2-(morpholin-4-yl)phenyl]methyl}piperazine-1-carboxylate]
< 25	25 to 75	< 25	–	–	–	Cc1ccc(N2CCCC2)c(CN2CCN(C(=O)ON3C(=O)CCC3=O)CC2)c1 [Example 128, 2,5-Dioxopyrrolidin-1-yl 4-{[5-methyl-2-(pyrrolidin-1-yl)phenyl]methyl}piperazine-1-carboxylate]
25 to 75	25 to 75	< 25	–	–	–	Cn1ncc(Br)c1CN1CCN(C(=O)ON2C(=O)CCC2=O)CC1 [Example 135, 2,5-Dioxopyrrolidin-1-yl 4-((4-bromo-1-methyl-1H-pyrazol-5-yl)methyl)piperazine-1-carboxylate]
25 to 75	25 to 75	< 25	–	–	–	COc1ccc(-c2cc(CN3CCN(C(=O)ON4C(=O)CCC4=O)CC3)no2)cc1 [Example 136, 2,5-Dioxopyrrolidin-1-yl 4-((5-(4-methoxyphenyl)isoxazol-3-yl)methyl)piperazine-1-carboxylate]
25 to 75	25 to 75	< 25	–	–	–	O=C(ON1C(=O)CCC1=O)N1CCN(Cc2cc(-c3ccccc3)on2)CC1 [Example 137, 2,5-Dioxopyrrolidin-1-yl 4-((5-phenylisoxazol-3-yl)methyl)piperazine-1-carboxylate]
25 to 75	25 to 75	< 25	–	–	–	Cn1cc(CN2CCN(C(=O)ON3C(=O)CCC3=O)CC2)c(-c2ccccc2Cl)n1 [Example 140, 2,5-Dioxopyrrolidin-1-yl 4-{[3-(2-chlorophenyl)-1-methyl-1H-pyrazol-4-yl]methyl}piperazine-1-carboxylate]
25 to 75	25 to 75	< 25	–	–	–	CC(C)n1cc(CN2CCN(C(=O)ON3C(=O)CCC3=O)CC2)c(-c2ccccc2)n1 [Example 141, 2,5-Dioxopyrrolidin-1-yl 4-{[3-phenyl-1-(propan-2-yl)-1H-pyrazol-4-yl]methyl}piperazine-1-carboxylate]
25 to 75	25 to 75	< 25	–	–	–	CC(C)n1cc(CN2CCN(C(=O)ON3C(=O)CCC3=O)CC2)c(-c2ccccc2Cl)n1 [Example 142, 2,5-Dioxopyrrolidin-1-yl 4-{[3-(2-chlorophenyl)-1-(propan-2-yl)-1H-pyrazol-4-yl]methyl}piperazine-1-carboxylate]
25 to 75	25 to 75	< 25	–	–	–	Cc1cc(CN2CCN(C(=O)ON3C(=O)CCC3=O)CC2)n(C(C)C)n1 [Example 146, 2,5-Dioxopyrrolidin-1-yl 4-{[3-methyl-1-(propan-2-yl)-1H-pyrazol-5-yl]methyl}piperazine-1-carboxylate]
< 25	< 25	< 25	–	–	–	O=C(ON1C(=O)CCC1=O)N1CCN(Cc2cnc3ccccn23)CC1 [Example 147, 2,5-Dioxopyrrolidin-1-yl 4-(imidazo[1,2-a]pyridin-3-ylmethyl)piperazine-1-carboxylate]

The next lines start with the molecule.

Structure (SMILES)	inhibition at 1 µM (ABHD6) [%]	inhibition at 1 µM (MAGL) [%]	inhibition at 1 µM (FAAH) [%]	inhibition at 10 µM (ABHD6) [%]	inhibition at 10 µM (MAGL) [%]	inhibition at 10 µM (FAAH) [%]
O=C(ON1C(=O)CCC1=O)N1CCN(Cc2ccc(Cl)cc2N2CCC(C(=O)N3CCCC3)CC2)CC1 [Example 116, 2,5-Dioxopyrrolidin-1-yl 4-({4-chloro-2-[4-(pyrrolidine-1-carbonyl)piperidin-1-yl]phenyl}methyl)piperazine-1-carboxylate]	< 25	25 to 75	< 25	–	–	–
O=C(ON1C(=O)CCC1=O)N1CCN(Cc2cc(C(F)(F)F)ccc2N2CCOCC2)CC1 [Example 119, 2,5-Dioxopyrrolidin-1-yl 4-{[2-(morpholin-4-yl)-5-(trifluoromethyl)phenyl]methyl}piperazine-1-carboxylate]	25 to 75	25 to 75	< 25	–	–	–
O=C(ON1C(=O)CCC1=O)N1CCN(Cc2cc(C(F)(F)F)ccc2N2CCCC2)CC1 [Example 120, 2,5-Dioxopyrrolidin-1-yl 4-{[2-(pyrrolidin-1-yl)-5-(trifluoromethyl)phenyl]methyl}piperazine-1-carboxylate]	25 to 75	> 75	< 25	–	–	–
O=C(ON1C(=O)CCC1=O)N1CCN(Cc2ccc(Cl)cc2N2CCN3CCC[C@@H]3C2)CC1 [Example 125, 2,5-Dioxopyrrolidin-1-yl 4-({2-[(8aR)-octahydropyrrolo[1,2-a]piperazin-2-yl]-4-chlorophenyl}methyl)piperazine-1-carboxylate]	> 75	> 75	< 25	–	–	–
CS(=O)(=O)N1CCN(C(=O)ON2C(=O)CCC2=O)CC1 [Example 126, 2,5-Dioxopyrrolidin-1-yl 4-methanesulfonylpiperazine-1-carboxylate]	< 25	25 to 75	< 25	< 25	< 25	< 25
O=C(ON1C(=O)CCC1=O)N1CCN(C(c2ccc3c(c2)OC(F)(F)O3)c2ccc3c(c2)OC(F)(F)O3)CC1 [Example 150, 2,5-Dioxopyrrolidin-1-yl 4-[bis(2,2-difluoro-2H-1,3-benzodioxol-5-yl)methyl]piperazine-1-carboxylate]	–	–	–	25 to 75	> 75	< 25
Cn1ncc2cc(C(c3ccc4c(cnn4C)c3)N3CCN(C(=O)ON4C(=O)CCC4=O)CC3)ccc21 [Example 154, 2,5-dioxopyrrolidin-1-yl 4-(bis(1-methyl-1H-indazol-5-yl)methyl)piperazine-1-carboxylate]	25 to 75	25 to 75	< 25	–	–	–
O=C(ON1C(=O)CCC1=O)N1CCN(C(c2cccnc2)c2cccnc2)CC1 [Example 155, 2,5-Dioxopyrrolidin-1-yl 4-(di(pyridin-3-yl)methyl)piperazine-1-carboxylate]	< 25	25 to 75	< 25	–	–	–
O=C(ON1C(=O)CCC1=O)N1CCN(C(c2ccc3c(c2)OCO3)c2ccc3c(c2)OCO3)CC1 [Example 156, 2,5-Dioxopyrrolidin-1-yl 4-[bis(2H-1,3-benzodioxol-5-yl)methyl]piperazine-1-carboxylate]	25 to 75	25 to 75	< 25	–	–	–
